In PubChem BioAssay AID212 (DTP/NCI, 2004) one finds T/C data, which are given here for 15 molecules.

The test system of the test is BDF1 mice, colon carcinoma 38 sc, T/C %. The test can be described thus: NCI In Vivo Anticancer Drug Screen. Data for tumor model Colon Carcinoma 38 (subcutaneous) in B6D2F1 (BDF1) mice. The note with it: endpoint: median tumor weight (est.), higher = larger tumour. A digest of the protocol: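 T/C readout: treated group (T) measurement over vehicle control group (C) measurement. Endpoint is survival or tumor size in mice bearing a transplanted tumor.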

The mark [1] stands for this setting: dose: 6.25 mg/kg/injection, schedule: Q07DX002 (ip), vehicle: Klucel (hydroxypropylcellulose) (HPC).
Setting [2] is: dose: 12.5 mg/kg/injection, schedule: Q07DX002 (ip), vehicle: Klucel (hydroxypropylcellulose) (HPC).
[3] abbreviates: dose: 25.0 mg/kg/injection, schedule: Q07DX002 (ip), vehicle: Klucel (hydroxypropylcellulose) (HPC).
The mark [4] stands for this setting: dose: 50.0 mg/kg/injection, schedule: Q07DX002 (ip), vehicle: Klucel (hydroxypropylcellulose) (HPC).
Setting [5] is: dose: 100.0 mg/kg/injection, schedule: Q07DX002 (ip), vehicle: Klucel (hydroxypropylcellulose) (HPC).
[6] abbreviates: dose: 25.0 mg/kg/injection, schedule: Q07DX002 (ip), vehicle: saline.
[7] abbreviates: dose: 50.0 mg/kg/injection, schedule: Q07DX002 (ip), vehicle: saline.
Setting [8] is: dose: 100.0 mg/kg/injection, schedule: Q07DX002 (ip), vehicle: saline.
Setting [9] is: dose: 200.0 mg/kg/injection, schedule: Q07DX002 (ip), vehicle: saline.
The mark [10] stands for this setting: dose: 200.0 mg/kg/injection, schedule: Q07DX002 (ip), vehicle: Klucel (hydroxypropylcellulose) (HPC).
Where [11] appears, read: dose: 25.0 mg/kg/injection, schedule: Q07DX002 (ip), vehicle: saline with Tween-80.
The mark [12] stands for this setting: dose: 100.0 mg/kg/injection, schedule: Q07DX002 (ip), vehicle: saline with Tween-80.
Setting [13] is: dose: 200.0 mg/kg/injection, schedule: Q07DX002 (ip), vehicle: saline with Tween-80.

Values joined by “and” are separate entries in the source; they are usually repeats but may differ in a detail not shown here. Identical values can stand only once. Results filed as inconclusive are left out.

Take `OC1CCCC2CCCNC12` (centres undefined): the T/C is 102 % of control under setting [1]; 100 % of control under setting [2]; 85 % of control under setting [3]; 100 % of control under setting [4]; 109 % of control under setting [5].
As to `COc1cccc2c1C(=O)c1c(O)c3c(c(O)c1C2=O)C[C@H](O)C[C@@H]3OC1CC(N)C(O)C(C)O1` (some centres undefined), the T/C by setting is: (dose: 3.38 mg/kg/injection, schedule: Q07DX002 (ip), vehicle: water) 97 % of control; (dose: 13.5 mg/kg/injection, schedule: Q07DX002 (ip), vehicle: water) 108 % of control; (dose: 15.0 mg/kg/injection, schedule: Q07DX002 (ip), vehicle: saline) 87 % of control; (dose: 24.0 mg/kg/injection, schedule: Q07DX002 (ip), vehicle: saline) 101 % of control; (dose: 27.0 mg/kg/injection, schedule: Q07DX002 (ip), vehicle: water) 55 % of control; (dose: 38.0 mg/kg/injection, schedule: Q07DX002 (ip), vehicle: saline) 61 % of control.
In the case of `C[Si](C)(C)O/C=C1/CCOC1=O`, the T/C is 84 % of control under setting [6]; 86 % of control under setting [7]; 84 % of control under setting [8]; 95 % of control under setting [9]; 105 % of control (dose: 400.0 mg/kg/injection, schedule: Q07DX002 (ip), vehicle: saline); 78 % of control (dose: 800.0 mg/kg/injection, schedule: Q07DX002 (ip), vehicle: saline).
`NC(=O)Oc1cccc(OC(N)=O)c1`: the T/C by setting is: (dose: 25.0 mg/kg/injection, schedule: Q07DX003 (ip), vehicle: other) 63 % of control; (dose: 50.0 mg/kg/injection, schedule: Q07DX003 (ip), vehicle: other) 103 % of control; (dose: 100.0 mg/kg/injection, schedule: Q07DX003 (ip), vehicle: other) 51 % of control; (dose: 200.0 mg/kg/injection, schedule: Q07DX003 (ip), vehicle: other) 68 % of control; (dose: 400.0 mg/kg/injection, schedule: Q07DX003 (ip), vehicle: other) 75 % of control.
On to `Cc1c2ccc3ccccc3c2c[n+]2ccccc12`, for which the T/C was 111 % of control and 87 % of control (dose: 5.0 mg/kg/injection, schedule: Q07DX002 (ip), vehicle: Klucel (hydroxypropylcellulose) (HPC)); 77 % of control (dose: 10.0 mg/kg/injection, schedule: Q07DX002 (ip), vehicle: Klucel (hydroxypropylcellulose) (HPC)); 89 % of control (dose: 40.0 mg/kg/injection, schedule: Q07DX002 (ip), vehicle: Klucel (hydroxypropylcellulose) (HPC)).
Consider `CCC1=C[C@H]2CN(CCc3c([nH]c4ccccc34)[C@@](C(=O)OC)(c3cc4c(cc3OC)N(C)[C@H]3[C@@](O)(C(=O)NC)[C@H](OC(C)=O)[C@]5(CC)C=CCN6CC[C@]43[C@@H]65)C2)C1`, for which the T/C runs as follows: (dose: 0.03 mg/kg/injection, schedule: Q07DX002 (ip), vehicle: saline) 116 % of control; (dose: 0.06 mg/kg/injection, schedule: Q07DX002 (ip), vehicle: saline) 84 % of control; (dose: 0.12 mg/kg/injection, schedule: Q07DX002 (ip), vehicle: saline) 90 % of control; (dose: 0.5 mg/kg/injection, schedule: Q07DX002 (ip), vehicle: saline) 108 % of control; (dose: 1.0 mg/kg/injection, schedule: Q07DX002 (ip), vehicle: saline) 90 % of control.
As to `CC(=O)OCC1OC(OC2=C(CC=C(C)C)C(=O)c3ccccc3C2=O)C(OC(C)=O)C(OC(C)=O)C1OC(C)=O` (centres undefined), the T/C under setting [2] was 205 % of control and 81 % of control; the T/C under setting [3] is 181 % of control; the T/C under setting [4] is 113 % of control and 103 % of control; the T/C under setting [5] is 151 % of control; the T/C under setting [10] is 190 % of control.
Regarding `COC1C(OC(=O)/C=C/C=C/C=C/C=C/C(=O)O)CCC2(CO2)C1C1(C)OC1CC=C(C)C` (centres undefined), the T/C is 101 % of control (dose: 25.0 mg/kg/injection, schedule: Q07DX002 (ip), vehicle: suspension in saline); 208 % of control (dose: 50.0 mg/kg/injection, schedule: Q07DX002 (ip), vehicle: suspension in saline); 115 % of control (dose: 200.0 mg/kg/injection, schedule: Q07DX002 (ip), vehicle: suspension in saline).
Take `CCCN1COC(OCC)C(C)(C)C1` (centres undefined): the T/C under setting [11] was 73 % of control; the T/C under setting [12] was 68 % of control and 73 % of control; the T/C under setting [13] is 77 % of control.
As to `CC1C2CCC3C(O)C2(CC(O)C2(O)C1CC(O)C2(C)C)CC3(C)O` (centres undefined), the T/C reads like this: (dose: 0.5 mg/kg/injection, schedule: Q07DX002 (ip), vehicle: Klucel (hydroxypropylcellulose) (HPC)) 103 % of control; (dose: 2.0 mg/kg/injection, schedule: Q07DX002 (ip), vehicle: Klucel (hydroxypropylcellulose) (HPC)) 181 % of control.
With `CC(=O)OC1=NC(C)c2c1cc(OC(C)=O)[nH]c2=O` (centres undefined), the T/C is, setting by setting: under setting [1], 124 % of control; under setting [2], 70 % of control and 85 % of control; under setting [10], 100 % of control.
On to `F[B-](F)(F)F`, for which the T/C is, setting by setting: (dose: 12.5 mg/kg/injection, schedule: Q07DX002 (ip), vehicle: gum acacia) 105 % of control; (dose: 25.0 mg/kg/injection, schedule: Q07DX002 (ip), vehicle: gum acacia) 90 % of control; (dose: 50.0 mg/kg/injection, schedule: Q07DX002 (ip), vehicle: gum acacia) 95 % of control; (dose: 200.0 mg/kg/injection, schedule: Q07DX002 (ip), vehicle: gum acacia) 64 % of control; (dose: 400.0 mg/kg/injection, schedule: Q07DX002 (ip), vehicle: gum acacia) 77 % of control.
Regarding `CC(=O)OC(C)C1C2=C(C(=O)CC1(C)O)C(=O)c1c(ccc(-c3ccc4c(c3O)C(=O)C3=C(C4=O)C(C(C)OC(C)=O)C(C)(O)CC3=O)c1O)C2=O` (centres undefined), the T/C is, setting by setting: (dose: 1.85 mg/kg/injection, schedule: Q07DX002 (ip), vehicle: saline with Tween-80) 155 % of control; (dose: 3.75 mg/kg/injection, schedule: Q07DX002 (ip), vehicle: saline with Tween-80) 109 % of control; (dose: 7.5 mg/kg/injection, schedule: Q07DX002 (ip), vehicle: saline with Tween-80) 107 % of control; (dose: 30.0 mg/kg/injection, schedule: Q07DX002 (ip), vehicle: saline with Tween-80) 122 % of control.
On to `NCCCNCCSP(=O)(O)O`, for which the T/C (dose: 6.25 mg/kg/injection, schedule: Q07DX002 (ip), vehicle: saline) is 101 % of control; the T/C (dose: 12.5 mg/kg/injection, schedule: Q07DX002 (ip), vehicle: saline) is 103 % of control; the T/C under setting [11] is 83 % of control; the T/C under setting [6] is 81 % of control; the T/C (dose: 50.0 mg/kg/injection, schedule: Q07DX002 (ip), vehicle: saline with Tween-80) was 73 % of control; the T/C under setting [7] is 109 % of control. In addition, the T/C was 91 % of control under setting [12]; 72 % of control under setting [8]; 82 % of control under setting [13]; 76 % of control under setting [9]; 82 % of control (dose: 400.0 mg/kg/injection, schedule: Q07DX002 (ip), vehicle: saline with Tween-80).
As to `Nc1ncnc2c1ccn2C1OC(CO)C(O)C1O` (centres undefined), the T/C reads like this: (dose: 0.5 mg/kg/injection, schedule: Q07DX003 (ip), vehicle: Klucel (hydroxypropylcellulose) (HPC)) 110 % of control and 87 % of control; (dose: 1.0 mg/kg/injection, schedule: Q07DX003 (ip), vehicle: Klucel (hydroxypropylcellulose) (HPC)) 74 % of control and 80 % of control; (dose: 2.0 mg/kg/injection, schedule: Q07DX003 (ip), vehicle: Klucel (hydroxypropylcellulose) (HPC)) 84 % of control and 86 % of control.
